The target of experiment [1] is Adenosine receptor A2a (Rattus norvegicus) (UniProt P30543). The experiment in a line: Binding affinity for adenosine A2A receptor of rat striatal membrane by displacing [3H]ZM-241385.
The next experiment deals with T1, Adenosine receptor A3 (Homo sapiens, UniProt P0DMS8).
T1 sequence (P0DMS8 whole entry): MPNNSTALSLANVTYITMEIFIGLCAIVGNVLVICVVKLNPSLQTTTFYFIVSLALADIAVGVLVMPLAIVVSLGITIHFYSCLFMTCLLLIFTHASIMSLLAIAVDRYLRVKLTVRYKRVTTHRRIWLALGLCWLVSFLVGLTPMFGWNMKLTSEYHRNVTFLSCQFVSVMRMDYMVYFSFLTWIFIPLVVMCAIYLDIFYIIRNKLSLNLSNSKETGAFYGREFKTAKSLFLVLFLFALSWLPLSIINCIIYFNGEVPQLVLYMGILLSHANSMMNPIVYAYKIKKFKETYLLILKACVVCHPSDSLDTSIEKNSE
In words: Binding affinity for Adenosine A3 receptor expressed in HEK 293 cells by displacing i[125I]-ABMECA. Format: cell-based, HEK293.

A further experiment concerns the target Adenosine receptor A2a (Rattus norvegicus, UniProt P30543). In words: Binding affinity for adenosine A2A receptor of rat striatal membrane by displacing [3H]-ZM 241385. Details: species or system Striatum.
A further experiment has as its target T2, Adenosine receptor A1 (Rattus norvegicus, UniProt P25099).
T2 sequence (P25099 whole entry): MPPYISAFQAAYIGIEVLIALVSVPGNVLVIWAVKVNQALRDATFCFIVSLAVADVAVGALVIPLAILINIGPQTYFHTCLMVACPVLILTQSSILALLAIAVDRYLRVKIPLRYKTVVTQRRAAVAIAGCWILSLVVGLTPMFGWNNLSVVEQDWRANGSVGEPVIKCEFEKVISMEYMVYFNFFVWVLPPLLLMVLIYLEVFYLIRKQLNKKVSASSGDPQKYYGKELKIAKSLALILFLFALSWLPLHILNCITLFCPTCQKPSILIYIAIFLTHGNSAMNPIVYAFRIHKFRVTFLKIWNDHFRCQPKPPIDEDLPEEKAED
The experiment in a line: Binding affinity for Adenosine A1 receptor of rat cortical membrane by displacing [3H]DPCPX.

By Ki is commonly meant the equilibrium dissociation constant of an inhibitor or competing ligand from its target.

Sequence of Adenosine receptor A2a (P30543 whole entry): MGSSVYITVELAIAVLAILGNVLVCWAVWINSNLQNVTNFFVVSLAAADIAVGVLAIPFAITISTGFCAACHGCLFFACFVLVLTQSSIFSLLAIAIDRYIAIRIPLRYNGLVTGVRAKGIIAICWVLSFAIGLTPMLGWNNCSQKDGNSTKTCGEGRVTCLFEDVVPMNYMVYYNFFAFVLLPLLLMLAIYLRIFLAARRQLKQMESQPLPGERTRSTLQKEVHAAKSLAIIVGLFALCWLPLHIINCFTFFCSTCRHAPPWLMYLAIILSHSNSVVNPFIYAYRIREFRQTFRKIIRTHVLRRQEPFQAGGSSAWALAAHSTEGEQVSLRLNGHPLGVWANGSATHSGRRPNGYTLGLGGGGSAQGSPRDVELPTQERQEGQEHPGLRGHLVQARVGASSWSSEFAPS
Sequence of Adenosine receptor A2a (Rattus norvegicus) (P30543 whole entry): as above

`O=[N+]([O-])c1nc(NCc2ccccc2)c2ncn([C@@H]3O[C@H](CO)[C@@H](O)[C@H]3O)c2n1`: the Displacement in experiment [1] came to 20%. Further, the inhibition constant Ki at Adenosine receptor A3 came to 163 nM.
Take `Nc1cc([N+](=O)[O-])nc2c1ncn2[C@@H]1O[C@H](CO)[C@@H](O)[C@H]1O`: the Ki at Adenosine receptor A2a turned out to be 437 nM; at Adenosine receptor A1, 646 nM; on Adenosine receptor A3, 216 nM.
With `O=[N+]([O-])c1cc(NC2CCCC2)c2ncn([C@@H]3O[C@H](CO)[C@@H](O)[C@H]3O)c2n1`, the inhibition constant Ki on Adenosine receptor A1 stood at 52.6 nM; at Adenosine receptor A3, 340 nM. Also, in experiment [1], the Displacement was 52%.
For `O=[N+]([O-])c1nc(NC2CCCC2)c2ncn([C@@H]3O[C@H](CO)[C@@H](O)[C@H]3O)c2n1`, the Ki was 3510 nM on Adenosine receptor A2a, 47.1 nM at Adenosine receptor A1 and 222 nM on Adenosine receptor A3.
As for `Nc1nc([N+](=O)[O-])nc2c1ncn2[C@@H]1O[C@H](CO)[C@@H](O)[C@H]1O`, the Ki on Adenosine receptor A2a came to 286 nM; on Adenosine receptor A1, 344 nM; at Adenosine receptor A3 it was 202 nM.
As for `O=[N+]([O-])c1cc(NCc2cccc(I)c2)c2ncn([C@@H]3O[C@H](CO)[C@@H](O)[C@H]3O)c2n1`, the results for the Ki on Adenosine receptor A2a, at Adenosine receptor A1 and at Adenosine receptor A3 were 208 nM, 110 nM and 9.8 nM, respectively.
On to `CONc1nc([N+](=O)[O-])nc2c1ncn2[C@@H]1O[C@H](CO)[C@@H](O)[C@H]1O`, for which the values for the Ki at Adenosine receptor A1 and on Adenosine receptor A3 were 1160 nM and 35.8 nM, respectively. Also, the Displacement in experiment [1] worked out at 9%.
With `O=[N+]([O-])c1nc(NCc2cccc(I)c2)c2ncn([C@@H]3O[C@H](CO)[C@@H](O)[C@H]3O)c2n1`, the Ki worked out at 1440 nM on Adenosine receptor A2a, 138 nM at Adenosine receptor A1 and 12 nM at Adenosine receptor A3.

The values above are taken from ChEMBL document CHEMBL1132734, “2-Nitro analogues of adenosine and 1-deazaadenosine: synthesis and binding studies at the adenosine A1, A2A and A3 receptor subtypes” (Bioorg Med Chem Lett, 2000).
